Patent US20120015887A1, “SYNTHETIC PEPTIDE AND USES THEREOF” (priority 2009, published 2012)
Bridge positions count the residues as written; N and C are the ends. Side chains are listed from the residue outwards. Peptide text beside a SMILES is read from it. I, II: the chains in the order shown.

How the values were obtained:
[1] = in vivo
[2] = Body weight, spleen weight and tolerability in Kunming mice with transplanted H22 tumor; settings: for Weight of spleen / Average weight (X ± S, g) End / Average weight (X ± S, g) Start: 2 mg/kg, ip × 5; for Weight of spleen: end of test; for Average weight (X ± S, g) End: End of test; for Average weight (X ± S, g) Start: Start of test
[3] = The 3rd day after administration, 2 mg/kg ip
[4] = The 5th day after administration, 2 mg/kg ip
[5] = The 7th day after administration, 2 mg/kg ip
[6] = The 9th day after administration, 2 mg/kg ip
[7] = The 11th day after administration, 2 mg/kg ip

Compound: C[C@@H](O)[C@H](N)C(=O)N[C@@H](CCCCN)C(=O)N1CCC[C@H]1C(=O)N[C@@H](CCCNC(=N)N)C(=O)NCCCC[C@H](NC(=O)[C@H](CCCNC(=N)N)NC(=O)[C@@H]1CCCN1C(=O)[C@H](CCCCN)NC(=O)[C@@H](N)[C@@H](C)O)C(=O)NCCCC[C@H](NC(=O)[C@H](CCCCNC(=O)[C@H](CCCNC(=N)N)NC(=O)[C@@H]1CCCN1C(=O)[C@H](CCCCN)NC(=O)[C@@H](N)[C@@H](C)O)NC(=O)[C@H](CCCNC(=N)N)NC(=O)[C@@H]1CCCN1C(=O)[C@H](CCCCN)NC(=O)[C@@H](N)[C@@H](C)O)C(=O)O [(TKPR)4>K2>K, reference compound] (I: H-TKPRK([Arg-Pro-Lys-Thr])K-OH / II: H-TKPRK([Arg-Pro-Lys-Thr]); amide I:6-II:C)
- Abnormity or side effect in test chickens [1]: no abnormity or side effect

Compound: C[C@@H](O)[C@H](N)C(=O)N[C@@H](CCCCN)C(=O)N1CCC[C@H]1C(=O)N[C@@H](CCCNC(=N)N)C(=O)NCCCC[C@H](NC(=O)[C@H](CCCNC(=N)N)NC(=O)[C@@H]1CCCN1C(=O)[C@H](CCCCN)NC(=O)[C@@H](N)[C@@H](C)O)C(=O)NCCCC[C@H](NC(=O)[C@H](CCCCNC(=O)[C@H](CCCNC(=N)N)NC(=O)[C@@H]1CCCN1C(=O)[C@H](CCCCN)NC(=O)[C@@H](N)[C@@H](C)O)NC(=O)[C@H](CCCNC(=N)N)NC(=O)[C@@H]1CCCN1C(=O)[C@H](CCCCN)NC(=O)[C@@H](N)[C@@H](C)O)C(=O)NCC(=O)O [(TKPR)4>K2>K-G] (I: H-TKPRK([Arg-Pro-Lys-Thr])KG-OH / II: H-TKPRK([Arg-Pro-Lys-Thr]); amide I:6-II:C)
- Body weight growth compared with the blank control group ([2]; 2 mg/kg ip, test duration): the same as that of the blank control group
- Death / acute toxicity in tumor-bearing mice ([2]; 2 mg/kg ip, test duration): no acute toxicity reactions occurred
- Side effect in tumor-bearing mice ([2]; 2 mg/kg ip, test duration): no obvious side effect
- Weight of spleen [2]: 0.31 ± 0.08 g
- Average weight (X ± S, g) End [2]: 30.6 ± 3.2 g
- Average weight (X ± S, g) Start [2]: 14.8 ± 0.8 g
- Body weight/g [2, 3]: 19.6 ± 0.8 g
- Body weight/g [2, 4]: 23.3 ± 1.0 g
- Body weight/g [2, 5]: 26.2 ± 1.9 g
- Body weight/g [2, 6]: 28.5 ± 2.5 g
- Body weight/g [2, 7]: 30.6 ± 3.2 g
- Body weight/g ([2]; The day without administration): 14.8 ± 0.8 g
- Abnormity or side effect in test chickens [1]: no abnormity or side effect

Compound: C[C@@H](O)[C@H](N)C(=O)N[C@@H](CCCCN)C(=O)N1CCC[C@H]1C(=O)N[C@@H](CCCNC(=N)N)C(=O)NCCCC[C@H](NC(=O)[C@H](CCCNC(=N)N)NC(=O)[C@@H]1CCCN1C(=O)[C@H](CCCCN)NC(=O)[C@@H](N)[C@@H](C)O)C(=O)NCCCC[C@H](NC(=O)[C@H](CCCCNC(=O)[C@H](CCCNC(=N)N)NC(=O)[C@@H]1CCCN1C(=O)[C@H](CCCCN)NC(=O)[C@@H](N)[C@@H](C)O)NC(=O)[C@H](CCCNC(=N)N)NC(=O)[C@@H]1CCCN1C(=O)[C@H](CCCCN)NC(=O)[C@@H](N)[C@@H](C)O)C(=O)N[C@H](C(=O)N[C@@H](CCCCN)C(=O)N1CCC[C@H]1C(=O)N[C@@H](CCCNC(=N)N)C(=O)O)[C@@H](C)O [(TKPR)4>K2>K-TKPR] (I: H-TKPRK([Arg-Pro-Lys-Thr])KTKPR-OH / II: H-TKPRK([Arg-Pro-Lys-Thr]); amide I:6-II:C)
- Abnormity or side effect in test chickens [1]: no abnormity or side effect

Compound: C[C@@H](O)[C@H](N)C(=O)N[C@@H](CCCCN)C(=O)N1CCC[C@H]1C(=O)N[C@@H](CCCNC(=N)N)C(=O)O [TKPR, Thr-Lys-Pro-Arg, reference compound] (H-TKPR-OH)
- Weight of spleen [2]: 0.32 ± 0.09 g
- Average weight (X ± S, g) End [2]: 29.6 ± 1.7 g
- Average weight (X ± S, g) Start [2]: 15.2 ± 0.7 g
- Body weight/g [2, 3]: 18.9 ± 0.7 g
- Body weight/g [2, 4]: 21.5 ± 1.1 g
- Body weight/g [2, 5]: 24.4 ± 1.3 g
- Body weight/g [2, 6]: 27.0 ± 1.5 g
- Body weight/g [2, 7]: 29.6 ± 1.7 g
- Body weight/g ([2]; The day without administration): 15.2 ± 0.7 g
